What was measured:
[1] = Mannitol particle size, initially and after mixing with VP10 hydrogel solution; format: physicochemical
Text: All chemicals were purchased from Sigma-Aldrich unless otherwise stated. N-isopropylacrylamide (NIPAAm) was purified by recrystallization from hexane and vacuum-dried. 2-Hydroxyethyl methacrylate (HEMA) was purified by vacuum distillation. Vinylpyrrolidone (VP), lactide, benzoyl peroxide (BPO), sodium methoxide (NaOCH3), methacryloyl chloride, methacrylic acid (MAA) and other solvents were used as received. D-mannitol particles were sieved to obtain the portion between 170 and 230 meshes.

SMCs = assay: Cytotoxicity and proliferation of SMCs (mitochondrial activity assay); format: cell-based; settings: dissolved mannitol

- particle size change after mixing with hydrogel solution ([1]; mixed with VP10 hydrogel solution for 10 min): did not decrease significantly
- initial size of sieved mannitol particles ([1]; sieved, 170-230 mesh): 68.0 μm
Structure (SMILES): OC[C@@H](O)[C@@H](O)[C@H](O)[C@H](O)CO [mannitol, D-mannitol]
- concentration up to which no cytotoxicity was shown (SMCs): up to 100 mM
